Assay results published in US7795305B2, “CDDO-compounds and combination therapies thereof” (Board of Regents, The University of Texas System, priority 2000, dated 2010).

Key:
[1] = tested on: U937 cells transduced with Bcl-2; assay: Cytotoxicity in Bcl-2 overexpressing cells; type: cell-based, human
Excerpt: The inventors also tested if overexpression of the anti-apoptotic protein Bcl-2 protected leukemic cells from CDDO-induced cytotoxicity. For these experiments U937 cells transduced with Bcl-2 were used with empty-vector containing counterparts as controls.
To study if the overexpression of Bcl-2 can protect leukemic cells from CDDO-Me-induced cytotoxicity the inventors used U937 cells transduced with Bcl-2 (Vrana et al., 1999) and their empty-vector containing counterparts. […] However, […] overexpressing Bcl-2 exerted almost complete protection from CDDO-Me killing as determined by annexin V-positivity, Phi-Phi-Lux and CMXRos staining. […] In contrast, in p53-negative HL-60 and HL-60-Dox cells Fas was only not induced but IETD-FMK could also not prevent CDDO-Me-induced cell death, indicating involvement of different mechanisms of apoptotic cell death in these cells (Owen-Schaub et al., 1994). […] Thus, induction of the FasL/Fas/caspase-8 pathway is not essential in the execution of CDDO-Me-induced cell death. Post-translational modifications of Bcl-2 are involved in the regulation of apoptosis by CDDO-Me. Thus, Bcl-2 phosphorylation is inhibited by CDDO-Me.

[2] = tested on: primary AML cells; assay: Apoptosis in primary AML samples, subG1 DNA flow cytometry; type: cell-based, human
Protocol: Subjects. Samples of bone marrow or peripheral blood were obtained for in vitro studies from patients with newly diagnosed or recurrent AML with high (>70%) blast count and from patients with myeloid transformation of chronic myeloid leukemia (CML). Informed consent was obtained following institutional guidelines. Mononuclear cells were separated by Ficoll-Hypaque (Sigma Chemical Co) density-gradient centrifugation.
Suspension culture of leukemic cells. Leukemic cell lines were cultured at a density of 3.0×10^5 cells/mL, and AML mononuclear cells at 5×10^5 cells/mL in the presence or absence of indicated concentrations of CDDO-Me. Appropriate amounts of DMSO (final concentration<0.05%) was included as a control. For cytotoxicity studies, 1 μM ara-C was added to the cultures.
Cell kinetic and DNA fragmentation studies. The cell cycle kinetics was determined by staining cells with acridine orange for cellular DNA and RNA content followed by flow cytometeric analysis as described. […] Ten thousand events were stored in list mode for analysis. The percentage of cells in the “sub G1 peak” defined the proportion of apoptotic cells in the tested populations. […] Cell-cycle kinetics was analyzed using ModFit software (Verity Software House, Inc., Topsham, Me.). […]

[3] = Murine model of angiogenesis, invasion promoted by ALL BM plasma; type: in vivo; settings: 0.5 μM, n=8
Protocol: CDDO-Me. The formation of tube-like endothelial structures that are associated with angiogenesis was analyzed using a Matrigel system (Kubota et al., 1988). Capillary-like structure formation of bone marrow endothelium was inhibited by CDDO-Me. […] Furthermore, in a murine model of angiogenesis, angiogenic invasion promoted by ALL BM plasma was abrogated by CDDO-Me at 0.5 μM (n=8). Thus, CDDO-Me also has anti-angiogenic effects.

[4] = tested on: vascular endothelial cells (HUVECs); assay: Proliferation of cytokine-stimulated vascular endothelial cells ([3H]-Thymidine, microscopy); type: cell-based
Protocol: CDDO. PPARγ nuclear receptor is expressed in bone marrow endothelial cells, and PPARγ ligands inhibit inhibited endothelial cell proliferation. […] The present inventors therefore tested the effects of CDDO in endothelial cell assays. The formation of tube-like endothelial structures was performed using Matrigel®, a basement membrane matrix extracted from the Engelbreth-Holm Swarm mouse sarcoma cell line. Bone marrow endothelial cells with recombinant angiogenic cytokines were incubated in the presence or absence of CDDO, and formation of tube-like endothelial structures was assessed by direct observation using a inverted contrast-phase microscope. […] Vascular endothelial cells (HUVEC) were grown in EBM-2 or EGM-2 media (Clonetics) containing VEGF, EGF, bFGF and IGF-1. The proliferation of endothelial cells was assessed by inverted contrast-phase microscope after 24 hrs of CDDO exposure in the indicated concentrations. CDDO-Me. The formation of tube-like endothelial structures that are associated with angiogenesis was analyzed using a Matrigel system (Kubota et al., 1988). Capillary-like structure formation of bone marrow endothelium was inhibited by CDDO-Me. […] Thus, CDDO-Me also has anti-angiogenic effects.

[5] = tested on: U937 cells; assay: Atlas Cancer cDNA array, differential gene expression; type: cell-based, human; settings: 1 μM; CDDO 24 hrs, CDDO-Me 1 hour
Protocol: The differential expression of a large number of genes involved in apoptosis, proliferation and signal transduction were analyzed utilizing the Atlas Cancer c-DNA array from Clontech (Palo Alto, Calif.). […] The downregulation of 17 genes (over two-fold) was seen, some of these genes were MAPKK5, STAT5A and B, DNA topoisomerase 2, VEGFR1 and VEGF. […] Differential expression of a large number of genes involved in apoptosis, proliferation and signal transduction was also performed for CDDO-Me. […] In preliminary studies, the inventors observed over two-fold downregulation of 23 genes: these include MAPK/ERK2, endothelin2, MLH1. Remarkably, decreased expression of VEGFR1, that potentially mediate pro-angiogenic properties of the leukemic cells, was observed (FIG. 33). […] The cDNA array data require conformation but may indicate what changes in gene expression contribute to the observed anti-leukemic effects of CDDO-Me.

[6] = tested on: Bcl-2 protein in U937 cells; assay: Bcl-2 protein by quantitative flow cytometry; type: cell-based, human; settings: 1 μM, 72 hrs
Protocol: The involvement of the mitochondrial apoptotic pathway in CDDO mediated apoptosis was analyzed in U937 cells.

[7] = tested on: human leukemic KBM-3 cells; assay: Engraftment of leukemic cells in NOD/Scid mice, FISH; type: in vivo; settings: 6 mg/kg/day IP for 10 days
Protocol: The effect of CDDO on engraftment of leukemic cells was further tested in NOD/Scid mice transplanted with 1×10^6 human leukemic KBM-3 cells. Eleven mice were treated with CDDO at 6 mg/kg/day IP (divided in 3 injections per day) for 10 days; a control set of 9 mice received vehicle alone. The engraftment of human leukemic cells was determined by FISH based on the known karyotype of the cells (trisomy 8) at 5 weeks following transplantation. While 10.6±2.7% cells were leukemic in the bone marrow of the control group (range 0.12-21%), only 3±2.4% leukemic cells were found in CDDO-treated mice (range 0.04-12.5%, p=0.016). 5/11 CDDO-treated animals but only ⅛ controls had <1% leukemic cells by FISH analysis.

Row | SMILES | protection by Bcl-2 overexpression (3-fold) [1] | paired mean difference to DMSO control (mean±SEM), apoptotic cells ([2]; 0.1 μM) | paired mean difference to DMSO control (mean±SEM), apoptotic cells ([2]; 0.5 μM) | AML samples in which apoptosis was induced ([2]; 1 μM) | AML samples in which apoptosis was induced ([2]; 5 μM) | samples with more than 90% apoptotic cells ([2]; 5 μM) | cell killing in AML samples ([2]; CDDO-Me 1 μM, ara-C 1 μM, alone or combined, n=6 (DMSO control 24.9±7.4%)) | samples with dose-dependent increase in percentage of apoptotic cells ([2]; lower concentrations) | angiogenic invasion promoted by ALL BM plasma [3] | proliferation / structure formation of cytokine-stimulated vascular endothelial cells [4] | number of genes downregulated over two-fold [5] | number of genes upregulated [5] | apoptosis in AML samples ([2]; CDDO 1 μM, ara-C 1 μM, alone or combined, n=23 (DMSO control 27.7±3.7%)) | paired mean difference±SEM in apoptosis ([2]; CDDO vs DMSO) | decrease in Bcl-2 protein [6] | animals with <1% leukemic cells by FISH [7] | leukemic cells in the bone marrow, range [7] | leukemic cells in the bone marrow (FISH) ([7]; 5 weeks after transplantation (control 10.6±2.7%))
1 | COC(=O)[C@]12CCC(C)(C)C[C@H]1[C@H]1C(=O)C=C3[C@@]4(C)C=C(C#N)C(=O)C(C)(C)[C@@H]4CC[C@@]3(C)[C@]1(C)CC2 [CDDO-Me] | did not protect cells from CDDO-Me-killing | 26.9%±10.8 | 43.2%±5.2 | 5 of 6 | 6 of 6 | 4/6 | 50.5±15% | 4/4 | abrogated | also inhibited | 23 | Twenty-two |  |  |  |  |  | 
2 | CC1(C)CCC2(C(=O)O)CCC3(C)C(C(=O)C=C4C5(C)C=C(C#N)C(=O)C(C)(C)C5CCC43C)C2C1 (stereo not drawn) [CDDO, 2-cyano-3,12-dioxoolen-1,9-dien-28-oic acid] | did not protect cells from CDDO-killing |  |  | 3 of 6 | 5 of 6 |  |  |  |  | diminished the proliferation | 17 | 7 | 41.2±4.4% | 13.5%±2.8 | > 40% | 5/11 | 0.04-12.5% | 3±2.4%
